Source: patent US20210309658A1, “ARYL COMPOUNDS FOR THE TREATMENT AND PROPHYLAXIS OF BACTERIAL INFECTION” (Hoffmann-La Roche Inc., priority 2018, published 2021)
≈ marks a conversion by molar mass, not a printed value.

Key:
E. coli (BW25113) = experiment: 50% growth inhibitory concentration (IC50) determination assay, E. coli; format: cell-based; details: Escherichia coli, BW25113; growth inhibition, Iso-Sensitest broth, OD 600 nm over 16 h; read-out: IC50 (μM) E. coli K12 BW25113
Method: (§1) The in vitro antimicrobial activity of the compounds against E. coli (BW25113, obtained from Coli Genetic Stock Center, #7636) and K. pneumoniae (ATCC10031) was determined according to the following procedure:
(§2) The assay used a 10-points Iso-Sensitest broth medium to measure quantitatively the in vitro activity of the compounds against E. coli BW25113 and K. pneumoniae ATCC 10031.
(§3) Stock compounds in DMSO were serially two-fold diluted (range from 50 to 0.097 μM final concentration) in 384 wells microtiter plates and inoculated with 49 μL the bacterial suspension in Iso-Sensitest broth medium to have a final cell concentration of ˜5×10^5 CFU/mL in a final volume/well of 50 μL/well. Microtiter plates were incubated at 35±2° C.
(§4) Bacterial cell growth was determined with the measurement of optical density at λ=600 nm each 20 minutes over a time course of 16 h.
(§5) Growth inhibition was calculated during the logarithmic growth of the bacterial cells with determination of the concentration inhibiting 50% (IC50) of the growth.

[1] = system: K. pneumoniae (ATCC10031); experiment: 50% growth inhibitory concentration (IC50) determination assay, K. pneumoniae; format: cell-based; details: Klebsiella pneumoniae, ATCC10031; growth inhibition, Iso-Sensitest broth, OD 600 nm over 16 h; * = detection limit; read-out: IC50 (μM) K. pneumoniae ATCC10031
Method: as §1, §2, §3, §4, §5

[2] = Lyophilisation Solubility Assay (LYSA); format: physicochemical; details: aqueous buffer, thermodynamic from solid; 0.05 M phosphate buffer, pH 6.5; * = detection limit
Method: The solubility of compounds of present invention was assessed by LYSA assay. Samples were prepared in duplicate from 10 mM DMSO stock solutions (20 μL) diluted in 30 μL pure DMSO. After evaporation of DMSO with a centrifugal vacuum evaporator, the residue was dissolved in 0.05 M phosphate buffer (150 μL, pH 6.5), stirred for one hour and shook for two hours. After one night, the solution was filtered using a microtiter filter plate. Then the filtrate and its 1/10 dilution were analyzed by HPLC-UV. In addition a four-point calibration curve was prepared from the 10 mM stock solutions and used for the solubility determination of the compounds.

[3] = Cytotoxicity assay (HepG2, CellTiter-Blue); format: cell-based; details: human; HepG2 cells, 3 days treatment; * = detection limit
Method: The cytotoxicity of compounds of present invention was assessed by HepG2 assay. HepG2 cells (ATCC HB-8065™) were seeded into 96-well plates (1.2×10^4 cells per well) and treated with compounds for 3 days, cell viability was measured at day 3 post compound treatment using the CellTiter-Blue® Cell Viability Assay (Promega, Cat. No. G8082). 20 μL of Cell titer blue buffer were added to each well of the cells, incubated for 3 hours at 37° C., and the fluorescence value was measured by a plate reader (Molecular Device SpectraMax M2). The CC50 value of each compound is plotted with GraphPad Prism using four parameter logistic equation.

E. coli (ATCC 25922) = experiment: Minimal Inhibitory Concentration (MIC) assay; format: cell-based; details: Escherichia coli, ATCC25922; CAMHB, 20 hours at 35° C.; read-out: MIC (μg/mL) E. coli ATCC 25922
Method: The in vitro potency of compounds to inhibit E. coli (ATCC 25922) growth was assessed by MIC (Minimal Inhibitory Concentration) assay. Samples were prepared from 10 mM DMSO stock solutions. After serial 2-fold dilution in DMSO in a master plate (Greiner, Cat No: 651201), 180 μL sterile distilled water was added to 20 μL each aliquot of the samples. Then 10 μL diluted compounds were transferred into a new assay plate (Costar, 3599).
The growth medium […] Mueller Hinton Broth (CAMHB) was prepared by adding the 20 mg per liter CaCl2 and 20 mg per liter MgCl2 into the MHB medium (Jianglai Company, sterilized).
Vials of each of the test microorganisms were maintained frozen in the vapor phase of a liquid nitrogen freezer. Took out the bacteria E. coli ATCC 25922 (KWIKSTIK, 0335K) from liquid nitrogen freezer, thawed it in room temperature, and diluted the bacterial in the CAMHB medium to achieve a final inoculum of 5×10^5 CFU/mL, 90 μL CAMHB with bacteria was dispensed to the assay plate and pipetted 5 times.
Then the assay plates were incubated for 20 hours at 35° C. in ambient air. Following incubation, the MIC (μg/mL), the lowest concentration of drug that inhibits visible growth of the microorganism was read and recorded throw the microscope.

IC50 (E. coli (BW25113)) [µM] | IC50 [1] [µM] | solubility thermodynamic [2] [mg/mL] | MIC (E. coli (ATCC 25922)) [µg/mL] | SMILES | CC50 at 3 days [3] [µM]
0.77 | ≤ 0.098 | 0.023 (≈ 48.9 µM) | – | CCNc1cc(F)cc2c1[nH]c1ncc(-c3cnc(CN)nc3)c(-n3ccc(C(F)(F)F)n3)c12 [Example 1.46, 3-[2-(Aminomethyl)pyrimidin-5-yl]-N-ethyl-6-fluoro-4-[3-(trifluoromethyl)pyrazol-1-yl]-9H-pyrido[2,3-b]indol-8-amine] | 27.4
0.698 | 0.098 | 0.014 (≈ 28.1 µM) | 0.359 (≈ 0.72 µM) | CNc1c(F)c(F)cc2c1[nH]c1ncc(-c3cncc(C#N)c3)c(-n3cc(CN)c(C(F)(F)F)n3)c12 [Example 1.49, 5-[4-[4-(Aminomethyl)-3-(trifluoromethyl)pyrazol-1-yl]-6,7-difluoro-8-(methylamino)-9H-pyrido[2,3-b]indol-3-yl]pyridine-3-carbonitrile] | 12.8
– | – | 0.024 (≈ 43.1 µM) | – | CCNc1cc(F)cc2c1[nH]c1ncc(-c3cnc(NCC(C)(C)C(=O)O)nc3)c(-n3ccc(C(F)(F)F)n3)c12 [Example 2.05, 3-[[5-[8-(Ethylamino)-6-fluoro-4-[3-(trifluoromethyl)pyrazol-1-yl]-9H-pyrido[2,3-b]indol-3-yl]pyrimidin-2-yl]amino]-2,2-dimethyl-propanoic acid] | 27.6
2.37 | ≤ 0.098 | 0.042 (≈ 86.9 µM) | – | CCNc1cc(F)cc2c1[nH]c1ncc(-c3cnc(OC)nc3)c(-n3nc(C#N)c4c3CNCC4)c12 [Example 1.39, 1-[8-(Ethylamino)-6-fluoro-3-(2-methoxypyrimidin-5-yl)-9H-pyrido[2,3-b]indol-4-yl]-4,5,6,7-tetrahydropyrazolo[3,4-c]pyridine-3-carbonitrile] | 49
– | – | 0.0083 (≈ 15.8 µM) | – | CCNc1cc(F)cc2c1[nH]c1ncc(-c3cnc(NC4CCNC4)nc3)c(-n3ccc(C(F)(F)F)n3)c12 (stereo not drawn) [Example 1.24, N-Ethyl-6-fluoro-3-[2-(pyrrolidin-3-ylamino)pyrimidin-5-yl]-4-[3-(trifluoromethyl)pyrazol-1-yl]-9H-pyrido[2,3-b]indol-8-amine] | 11.8
0.204 | ≤ 0.098 | – | 0.142 (≈ 0.293 µM) | CCNc1cc(F)cc2c1[nH]c1ncc(-c3cnc(C(N)=O)nc3)c(-n3ccc(C(F)(F)F)n3)c12 [Example 3.04, 5-[8-(Ethylamino)-6-fluoro-4-[3-(trifluoromethyl)pyrazol-1-yl]-9H-pyrido[2,3-b]indol-3-yl]pyrimidine-2-carboxamide] | 20.9
0.827 | 0.441 | – | 0.731 (≈ 1.36 µM) | CCNc1cc(F)cc2c1[nH]c1ncc(-c3cncc(Cc4n[nH]c(=O)o4)c3)c(-n3ccc(C(F)(F)F)n3)c12 [Example 6.01, 5-[[5-[8-(ethylamino)-6-fluoro-4-[3-(trifluoromethyl)pyrazol-1-yl]-9H-pyrido[2,3-b]indol-3-yl]-3-pyridyl]methyl]-3H-1,3,4-oxadiazol-2-one] | 11.4
2.04 | ≤ 0.098 | 0.016 (≈ 34.1 µM) | – | CCNc1cc(F)cc2c1[nH]c1ncc(-c3cncc(CN)c3)c(-n3ccc(C(F)(F)F)n3)c12 [Example 1.45, 3-[5-(Aminomethyl)-3-pyridyl]-N-ethyl-6-fluoro-4-[3-(trifluoromethyl)pyrazol-1-yl]-9H-pyrido[2,3-b]indol-8-amine] | –
2 | ≤ 0.098 | – | 0.727 (≈ 1.44 µM) | CCNc1cc(F)cc2c1[nH]c1ncc(-c3cncc(C#N)c3)c(-n3nc(C(F)(F)F)c4c3CNC4)c12 [Example 1.34, 5-[8-(Ethylamino)-6-fluoro-4-[3-(trifluoromethyl)-5,6-dihydro-4H-pyrrolo[3,4-c]pyrazol-1-yl]-9H-pyrido[2,3-b]indol-3-yl]pyridine-3-carbonitrile] | 14.1
– | – | 0.067 (≈ 128 µM) | – | CCNc1cc(F)cc2c1[nH]c1ncc(-c3cnc(C4(C(=O)O)CC4)nc3)c(-n3ccc(C(F)(F)F)n3)c12 [Example 2.01, 1-[5-[8-(Ethylamino)-6-fluoro-4-[3-(trifluoromethyl)pyrazol-1-yl]-9H-pyrido[2,3-b]indol-3-yl]pyrimidin-2-yl]cyclopropanecarboxylic Acid] | 38.6
– | – | 0.0076 (≈ 14.1 µM) | – | CCNc1cc(F)cc2c1[nH]c1ncc(-c3cnc(NC4CCNCC4)nc3)c(-n3ccc(C(F)(F)F)n3)c12 [Example 1.10, N-Ethyl-6-fluoro-3-[2-(4-piperidylamino)pyrimidin-5-yl]-4-[3-(trifluoromethyl)pyrazol-1-yl]-9H-pyrido[2,3-b]indol-8-amine] | –
1.29 | 0.121 | 0.021 (≈ 38.9 µM) | – | CCNc1cc(F)cc2c1[nH]c1ncc(-c3cnc(OC4CCNCC4)nc3)c(-n3ccc(C(F)(F)F)n3)c12 [Example 1.53, N-ethyl-6-fluoro-3-[2-(4-piperidyloxy)pyrimidin-5-yl]-4-[3-(trifluoromethyl)pyrazol-1-yl]-9H-pyrido[2,3-b]indol-8-amine] | –
0.374 | ≤ 0.098 | 0.0325 (≈ 65.7 µM) | 0.618 (≈ 1.25 µM) | CCNc1cc(F)cc2c1[nH]c1ncc(-c3cncc(C#N)c3)c(-n3cc(CN)c(C(F)(F)F)n3)c12 [Example 1.26, 5-[4-[4-(Aminomethyl)-3-(trifluoromethyl)pyrazol-1-yl]-8-(ethylamino)-6-fluoro-9H-pyrido[2,3-b]indol-3-yl]pyridine-3-carbonitrile] | –
1.67 | 0.254 | 0.148 (≈ 289 µM) | – | CNc1cc(F)cc2c1[nH]c1ncc(-c3cnc(C4(C(=O)O)CC4)nc3)c(-n3ccc(C(F)(F)F)n3)c12 [Example 2.02, 1-[5-[6-Fluoro-8-(methylamino)-4-[3-(trifluoromethyl)pyrazol-1-yl]-9H-pyrido[2,3-b]indol-3-yl]pyrimidin-2-yl]cyclopropanecarboxylic acid] | 62.6
0.17 | ≤ 0.098 | < 0.001 | 0.127 (≈ 0.292 µM) | CNc1cc(F)cc2c1[nH]c1nc(Oc3cnc(C)nc3)nc(N3C[C@H]4C[C@@H]3C[C@H]4N)c12 [GP-6, reference compound] | 5.6
